Data on 44 molecules can be found in patent US9682141B2, “Combination of kinase inhibitors and uses thereof” (INTELLIKINE LLC, priority 2011, dated 2017).

Format in all cases: biochemical
Experiment [1] addresses PI3K γ (Homo sapiens (Human), UniProt P48736). Briefly: PI 3-Kinase (human) HTRF assay, p110γ. As to conditions: read-out: PI3K γ IC50.
For experiment [2], the target named is PI3K δ (Homo sapiens (Human), UniProt O00329). Briefly: PI 3-Kinase (human) HTRF assay, p110δ/p85α.
Method: (§1) An exemplary system is PI 3-Kinase (human) HTRF™ Assay from Upstate. […] Briefly, the assay is a time resolved FRET assay that indirectly measures PIP3 product formed by the activity of a PI3-K. The kinase reaction is performed in a microtitre plate (e.g., a 384 well microtitre plate). The total reaction volume is approximately 20 ul per well. In the first step, each well receives 2 ul of test compound in 20% dimethylsulphoxide resulting in a 2% DMSO final concentration. Next, approximately 14.5 ul of a kinase/PIP2 mixture (diluted in 1× reaction buffer) is added per well for a final concentration of 0.25-0.3 ug/ml kinase and 10 μM PIP2. The plate is sealed and incubated for 15 minutes at room temperature. To start the reaction, 3.5 ul of ATP (diluted in 1× reaction buffer) is added per well for a final concentration of 10 μM ATP. The plate is sealed and incubated for 1 hour at room temperature. The reaction is stopped by adding 5 ul of Stop Solution per well and then 5 ul of Detection Mix is added per well. The plate is sealed, incubated for 1 hour at room temperature, and then read on an appropriate plate reader. Data is analyzed and IC50s are generated using GraphPad Prism 5. For PI3K α, β, δ, and γ, the nM concentration of inhibitor to reach IC50 is provided.
Experiment [3] concerns the target PI3K β (Homo sapiens (Human), UniProt P42338). Nature of the experiment: PI 3-Kinase (human) HTRF assay, p110β/p85α.
Method: as §1
Experiment [4] concerns the target PI3K α (Homo sapiens (Human), UniProt P42336). Nature of the experiment: PI 3-Kinase (human) HTRF assay, p110α/p85α.
Method: as §1

PI3K δ, sequence (O00329 whole entry): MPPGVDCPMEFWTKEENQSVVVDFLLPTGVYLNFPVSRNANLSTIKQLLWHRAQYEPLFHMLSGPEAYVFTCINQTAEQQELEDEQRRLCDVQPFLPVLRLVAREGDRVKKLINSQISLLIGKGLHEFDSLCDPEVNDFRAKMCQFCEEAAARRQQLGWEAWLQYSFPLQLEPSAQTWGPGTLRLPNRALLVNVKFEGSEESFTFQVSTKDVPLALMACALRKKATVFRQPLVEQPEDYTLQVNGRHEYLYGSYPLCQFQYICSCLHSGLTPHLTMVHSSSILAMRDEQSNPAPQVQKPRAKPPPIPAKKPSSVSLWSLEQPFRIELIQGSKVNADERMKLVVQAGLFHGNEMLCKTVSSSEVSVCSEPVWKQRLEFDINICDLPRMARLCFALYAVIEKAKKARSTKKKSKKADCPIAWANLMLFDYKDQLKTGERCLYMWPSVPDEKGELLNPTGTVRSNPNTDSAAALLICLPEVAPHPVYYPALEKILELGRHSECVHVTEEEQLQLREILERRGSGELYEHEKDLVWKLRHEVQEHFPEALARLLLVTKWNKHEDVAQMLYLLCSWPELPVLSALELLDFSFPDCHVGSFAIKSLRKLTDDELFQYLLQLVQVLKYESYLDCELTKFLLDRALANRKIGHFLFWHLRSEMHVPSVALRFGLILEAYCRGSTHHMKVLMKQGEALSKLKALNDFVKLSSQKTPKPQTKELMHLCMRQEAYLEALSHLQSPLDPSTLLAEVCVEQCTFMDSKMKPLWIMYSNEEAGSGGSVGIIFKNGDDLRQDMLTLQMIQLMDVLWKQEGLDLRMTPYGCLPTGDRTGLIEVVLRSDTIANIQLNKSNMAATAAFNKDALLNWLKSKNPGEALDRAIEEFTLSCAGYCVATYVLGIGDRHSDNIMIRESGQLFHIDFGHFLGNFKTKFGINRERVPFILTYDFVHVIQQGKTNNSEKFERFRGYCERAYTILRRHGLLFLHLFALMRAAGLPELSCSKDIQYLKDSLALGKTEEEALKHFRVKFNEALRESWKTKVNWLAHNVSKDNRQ
PI3K δ, sequence (P27986 whole entry partner): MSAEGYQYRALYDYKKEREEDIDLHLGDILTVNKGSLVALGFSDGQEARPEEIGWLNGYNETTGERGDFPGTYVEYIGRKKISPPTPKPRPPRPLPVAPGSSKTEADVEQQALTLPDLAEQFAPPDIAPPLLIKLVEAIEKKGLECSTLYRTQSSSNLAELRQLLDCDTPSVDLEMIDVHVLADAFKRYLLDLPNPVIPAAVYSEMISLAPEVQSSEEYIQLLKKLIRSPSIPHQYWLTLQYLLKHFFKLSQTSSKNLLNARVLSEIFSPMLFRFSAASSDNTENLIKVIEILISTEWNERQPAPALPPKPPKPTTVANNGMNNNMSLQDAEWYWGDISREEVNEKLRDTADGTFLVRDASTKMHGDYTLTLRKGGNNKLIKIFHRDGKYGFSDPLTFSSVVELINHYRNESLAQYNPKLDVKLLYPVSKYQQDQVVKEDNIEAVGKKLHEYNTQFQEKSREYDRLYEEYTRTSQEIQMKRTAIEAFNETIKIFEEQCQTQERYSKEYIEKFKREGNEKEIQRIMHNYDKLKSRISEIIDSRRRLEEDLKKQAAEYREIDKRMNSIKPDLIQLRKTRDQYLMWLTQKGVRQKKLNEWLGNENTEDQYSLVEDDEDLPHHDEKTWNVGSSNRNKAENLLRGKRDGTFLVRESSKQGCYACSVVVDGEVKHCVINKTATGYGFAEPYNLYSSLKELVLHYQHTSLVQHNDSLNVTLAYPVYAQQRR
PI3K α, sequence (P42336 whole entry): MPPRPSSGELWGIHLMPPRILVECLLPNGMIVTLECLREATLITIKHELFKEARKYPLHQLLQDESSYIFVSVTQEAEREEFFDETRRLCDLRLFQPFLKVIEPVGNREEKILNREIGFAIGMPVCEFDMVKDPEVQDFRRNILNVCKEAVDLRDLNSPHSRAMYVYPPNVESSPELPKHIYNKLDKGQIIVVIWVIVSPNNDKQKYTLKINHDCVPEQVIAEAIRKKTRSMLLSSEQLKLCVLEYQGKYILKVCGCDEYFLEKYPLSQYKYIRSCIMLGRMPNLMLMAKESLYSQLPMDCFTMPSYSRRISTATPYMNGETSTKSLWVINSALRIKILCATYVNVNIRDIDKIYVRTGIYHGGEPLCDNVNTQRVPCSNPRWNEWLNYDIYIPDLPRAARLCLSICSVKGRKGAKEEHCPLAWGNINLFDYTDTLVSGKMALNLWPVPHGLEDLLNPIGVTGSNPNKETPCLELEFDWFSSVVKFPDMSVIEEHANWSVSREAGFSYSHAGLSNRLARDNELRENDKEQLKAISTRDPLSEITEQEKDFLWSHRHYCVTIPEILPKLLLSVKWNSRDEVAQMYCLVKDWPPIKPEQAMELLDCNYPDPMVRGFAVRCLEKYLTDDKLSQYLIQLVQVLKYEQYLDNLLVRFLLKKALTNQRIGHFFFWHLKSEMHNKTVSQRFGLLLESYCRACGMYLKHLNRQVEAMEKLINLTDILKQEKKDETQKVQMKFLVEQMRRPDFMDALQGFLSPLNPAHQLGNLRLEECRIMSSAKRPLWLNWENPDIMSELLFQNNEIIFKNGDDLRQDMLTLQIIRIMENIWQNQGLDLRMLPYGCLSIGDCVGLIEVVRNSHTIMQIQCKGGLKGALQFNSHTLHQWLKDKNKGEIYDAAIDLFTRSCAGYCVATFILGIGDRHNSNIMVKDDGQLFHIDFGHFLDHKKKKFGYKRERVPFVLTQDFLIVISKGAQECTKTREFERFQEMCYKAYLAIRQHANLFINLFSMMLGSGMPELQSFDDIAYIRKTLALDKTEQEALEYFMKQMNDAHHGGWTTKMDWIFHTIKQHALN
PI3K α, sequence (P27986 whole entry partner): as the sequence (P27986 whole entry partner) above
PI3K γ, sequence (P48736 whole entry): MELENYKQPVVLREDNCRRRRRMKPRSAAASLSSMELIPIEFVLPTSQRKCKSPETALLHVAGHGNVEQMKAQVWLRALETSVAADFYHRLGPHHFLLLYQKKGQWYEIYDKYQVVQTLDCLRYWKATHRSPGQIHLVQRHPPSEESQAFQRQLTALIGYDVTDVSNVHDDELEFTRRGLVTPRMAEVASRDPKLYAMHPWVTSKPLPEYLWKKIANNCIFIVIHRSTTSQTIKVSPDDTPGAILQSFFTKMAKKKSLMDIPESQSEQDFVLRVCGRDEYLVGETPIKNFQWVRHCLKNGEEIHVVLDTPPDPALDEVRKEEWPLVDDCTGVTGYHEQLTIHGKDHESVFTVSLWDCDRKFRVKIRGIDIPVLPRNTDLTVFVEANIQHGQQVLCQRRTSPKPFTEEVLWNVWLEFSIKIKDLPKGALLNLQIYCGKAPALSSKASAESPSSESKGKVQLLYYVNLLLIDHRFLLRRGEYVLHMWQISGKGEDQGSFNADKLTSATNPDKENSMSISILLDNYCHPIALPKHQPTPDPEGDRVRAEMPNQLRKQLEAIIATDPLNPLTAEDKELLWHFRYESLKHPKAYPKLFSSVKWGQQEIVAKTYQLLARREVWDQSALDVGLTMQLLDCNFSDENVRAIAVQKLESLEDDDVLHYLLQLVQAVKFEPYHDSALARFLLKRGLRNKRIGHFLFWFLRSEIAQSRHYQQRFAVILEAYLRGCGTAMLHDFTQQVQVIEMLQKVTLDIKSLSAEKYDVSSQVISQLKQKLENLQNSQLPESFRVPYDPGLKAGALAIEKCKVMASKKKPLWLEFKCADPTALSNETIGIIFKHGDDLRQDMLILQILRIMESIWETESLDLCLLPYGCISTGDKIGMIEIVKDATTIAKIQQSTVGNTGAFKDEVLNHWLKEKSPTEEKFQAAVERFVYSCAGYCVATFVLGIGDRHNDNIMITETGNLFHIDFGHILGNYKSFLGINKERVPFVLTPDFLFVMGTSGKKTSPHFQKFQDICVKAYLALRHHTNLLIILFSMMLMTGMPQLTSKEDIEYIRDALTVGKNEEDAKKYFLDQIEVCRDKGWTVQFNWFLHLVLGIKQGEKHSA
PI3K β, sequence (P42338 whole entry): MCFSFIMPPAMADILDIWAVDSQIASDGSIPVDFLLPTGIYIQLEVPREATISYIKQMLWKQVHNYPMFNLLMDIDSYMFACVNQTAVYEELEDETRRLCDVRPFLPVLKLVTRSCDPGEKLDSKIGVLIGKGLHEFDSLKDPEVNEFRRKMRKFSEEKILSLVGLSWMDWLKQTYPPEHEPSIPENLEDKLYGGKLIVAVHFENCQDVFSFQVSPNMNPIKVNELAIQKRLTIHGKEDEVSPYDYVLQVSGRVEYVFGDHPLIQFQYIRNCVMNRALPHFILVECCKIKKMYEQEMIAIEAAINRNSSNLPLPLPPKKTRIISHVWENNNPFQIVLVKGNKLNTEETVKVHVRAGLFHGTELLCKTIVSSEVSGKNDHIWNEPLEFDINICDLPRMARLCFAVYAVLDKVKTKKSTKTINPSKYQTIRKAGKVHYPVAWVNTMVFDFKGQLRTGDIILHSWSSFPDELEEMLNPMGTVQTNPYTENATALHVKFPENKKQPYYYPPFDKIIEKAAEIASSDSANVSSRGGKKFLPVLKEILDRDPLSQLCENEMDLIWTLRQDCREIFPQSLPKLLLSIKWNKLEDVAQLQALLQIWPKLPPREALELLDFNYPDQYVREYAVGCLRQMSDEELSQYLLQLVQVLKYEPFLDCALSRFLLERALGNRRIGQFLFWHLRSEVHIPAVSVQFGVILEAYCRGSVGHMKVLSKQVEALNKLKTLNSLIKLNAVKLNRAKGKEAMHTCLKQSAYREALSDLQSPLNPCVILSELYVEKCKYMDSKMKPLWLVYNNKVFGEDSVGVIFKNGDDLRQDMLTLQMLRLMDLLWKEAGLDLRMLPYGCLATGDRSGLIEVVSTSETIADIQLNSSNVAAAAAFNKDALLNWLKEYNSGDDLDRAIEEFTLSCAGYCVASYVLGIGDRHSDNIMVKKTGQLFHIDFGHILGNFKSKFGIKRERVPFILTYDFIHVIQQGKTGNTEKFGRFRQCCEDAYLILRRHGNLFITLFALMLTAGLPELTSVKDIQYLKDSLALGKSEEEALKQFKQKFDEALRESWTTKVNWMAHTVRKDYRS
PI3K β, sequence (P27986 whole entry partner): as the sequence (P27986 whole entry partner) above

For the molecule `CN1CCN(c2ncnc3ccc(-c4ccc5oc(N)nc5c4)cc23)CC1` [Compound 23], the IC50 is less than 0.1 µM in experiment [1], less than 10 µM in experiment [2], less than 1 µM in experiment [3] and less than 0.1 µM in experiment [4].
As for `CC(C)N1CCN(c2cnc3ccc(-c4ccc5oc(N)nc5c4)cc3n2)CC1`, the IC50 in experiment [1] is less than 0.1 µM; in experiment [2], less than 1 µM; in experiment [3], less than 0.1 µM; in experiment [4], less than 0.1 µM.
On to `CS(=O)(=O)CCN1CCC(Nc2cnc3ccc(-c4ccc5oc(N)nc5c4)cc3n2)CC1`, for which the IC50 in experiment [1] is less than 0.1 µM; in experiment [2], less than 1 µM; in experiment [3] it was less than 10 µM; in experiment [4], less than 0.1 µM.
`Nc1nc2cc(-c3ccc4ncc(N5CCNC(=O)C5)nc4n3)ccc2o1`: the 50% inhibitory concentration (IC50) in experiment [1] was less than 0.1 µM; in experiment [2], less than 10 µM; in experiment [3], less than 1 µM; in experiment [4], less than 0.1 µM.
As to `C[C@H]1CN(c2cnc3ccc(-c4ccc5oc(N)nc5c4)cc3n2)CCN1`, the IC50 in experiment [1] was less than 1 µM; in experiment [2], less than 1 µM; in experiment [3] it was less than 0.1 µM; in experiment [4], less than 0.1 µM.
In the case of `Nc1nc2cc(-c3ccc4ncc(N5CC(N6CC7CCC(C6)O7)C5)nc4n3)ccc2o1`, the IC50 in experiment [1] is less than 10 µM; in experiment [2] it was more than 10 µM; in experiment [3], more than 10 µM; in experiment [4], less than 1 µM.
For `CN1CCN(c2cnc3ccc(-c4ccc5nc(N)sc5c4)cc3n2)CC1`, the IC50 in experiment [1] was less than 10 µM; in experiment [2], more than 10 µM; in experiment [3], less than 0.1 µM; in experiment [4], less than 0.1 µM.
On to `CC(=O)N1CCN(C(=O)c2cnc3ccc(-c4ccc5oc(N)nc5c4)cn23)CC1`, for which the IC50 in experiment [1] is less than 1 µM; in experiment [2], more than 10 µM; in experiment [3], more than 10 µM; in experiment [4], less than 0.1 µM.
For `CS(=O)(=O)N1CCN(C2CN(c3cnc4ccc(-c5ccc6oc(N)nc6c5)nc4n3)C2)CC1`, the IC50 in experiment [1] was less than 1 µM; in experiment [2], less than 10 µM; in experiment [3] it was more than 10 µM; in experiment [4], less than 0.1 µM.
Taken in the same sequence, the figures for `CCN1CCN(C(=O)c2cnc3ccc(-c4ccc5oc(N)nc5c4)cn23)CC1` were less than 10 µM, more than 10 µM, more than 10 µM and less than 1 µM.
Taken in the same sequence, the figures for `CC(C)N1CCN(C(=O)c2cnc3ccc(-c4ccc5oc(N)nc5c4)cn23)CC1` were more than 10 µM, more than 10 µM, less than 10 µM and less than 0.1 µM.
On to `C[C@@H](N)C(=O)N1CCN(c2cnc3ccc(-c4ccc5oc(N)nc5c4)nc3n2)CC1`, for which the half-maximal inhibitory concentration (IC50) in experiment [1] was less than 1 µM; in experiment [2], less than 10 µM; in experiment [3], less than 10 µM; in experiment [4] it was less than 0.1 µM.
Consider `Nc1nc2cc(-c3ccc4ncc(-c5cccnc5)cc4n3)ccc2o1`, for which the half-inhibitory concentration (IC50) is less than 0.1 µM in experiment [1], less than 10 µM in experiment [2], less than 10 µM in experiment [3] and less than 0.1 µM in experiment [4].
With `CN1CCC(N(C)c2cnc3ccc(-c4ccc5oc(N)nc5c4)cc3n2)CC1`, the IC50 in experiment [1] is less than 10 µM; in experiment [2], less than 1 µM; in experiment [3], less than 10 µM; in experiment [4] it was less than 0.1 µM.
For the molecule `CC1CN(c2cnc3ccc(-c4ccc5oc(N)nc5c4)cc3n2)CCO1` (centres unmarked), the IC50 was less than 0.1 µM in experiment [1], less than 10 µM in experiment [2], less than 1 µM in experiment [3] and less than 0.1 µM in experiment [4].
Regarding `CN1CCN(C(=O)c2cnc3ccc(-c4ccc5oc(N)nc5c4)nn23)CC1`, the concentration for half-maximal inhibition (IC50) in experiment [1] is less than 10 µM; in experiment [2] it was more than 10 µM; in experiment [3], more than 10 µM; in experiment [4], less than 10 µM.
As to `Nc1nc2cc(-c3ccc4ncc(N5CC6CCC(C5)O6)nc4n3)ccc2o1`, the half-inhibitory concentration (IC50) in experiment [1] was less than 1 µM; in experiment [2] it was more than 10 µM; in experiment [3], more than 10 µM; in experiment [4], less than 0.1 µM.
On to `Nc1nc2cc(-c3ccc4ncnc(NC5CCOCC5)c4c3)ccc2o1` [Compound 24], for which the IC50 is less than 0.1 µM in experiment [1], less than 0.1 µM in experiment [2], less than 1 µM in experiment [3] and less than 0.1 µM in experiment [4].
As to `Nc1nc2cc(-c3cc4nccc(-c5ccncc5)c4s3)ccc2o1` [Compound 14], the IC50 in experiment [1] is less than 10 µM; in experiment [2], more than 10 µM; in experiment [3] it was more than 10 µM; in experiment [4] it was less than 10 µM.
With `Nc1nc2cc(-c3ccc4ncc(NC5CCOCC5)nc4c3)ccc2o1`, the IC50 in experiment [1] is less than 0.1 µM; in experiment [2], less than 1 µM; in experiment [3], less than 10 µM; in experiment [4] it was less than 0.1 µM.
Take `CN1CCN(C(=O)c2cnc3ccc(-c4ccc5nc(N)oc5c4)cn23)CC1`: the IC50 is more than 10 µM in experiment [1], more than 10 µM in experiment [2], less than 10 µM in experiment [3] and less than 1 µM in experiment [4].
On to `Cc1nc2ccc(-c3ccc4oc(N)nc4c3)cn2c1C(=O)N1CCN(C)CC1`, for which the half-inhibitory concentration (IC50) in experiment [1], in experiment [2], in experiment [3] and in experiment [4] was more than 10 µM each time.
Consider `Nc1nc2cc(-c3ccc4ncc(C5=CCOCC5)nc4n3)ccc2o1`, for which the 50% inhibitory concentration (IC50) in experiment [1] was less than 0.1 µM; in experiment [2], more than 10 µM; in experiment [3], less than 10 µM; in experiment [4] it was less than 0.1 µM.
With `CN1CCC(N(C)c2ncnc3ccc(-c4ccc5oc(N)nc5c4)cc23)CC1`, the IC50 in experiment [1] is less than 0.1 µM; in experiment [2], less than 1 µM; in experiment [3] it was less than 0.1 µM; in experiment [4], less than 0.1 µM.
For `CN1CCN(c2cnc3ccc(-c4ccc5nc(N)oc5c4)cc3n2)CC1`, the half-maximal inhibitory concentration (IC50) is less than 10 µM in experiment [1], more than 10 µM in experiment [2], less than 0.1 µM in experiment [3] and less than 1 µM in experiment [4].
Taken in the same sequence, the figures for `CCOC(=O)N1CCN(c2cnc3ccc(-c4ccc5oc(N)nc5c4)nc3n2)CC1` were less than 1 µM, less than 1 µM, less than 1 µM and less than 0.1 µM.
Taken in the same sequence, the figures for `CN1CCC(NC(=O)c2cnc3ccc(-c4ccc5oc(N)nc5c4)cn23)CC1` were less than 1 µM, less than 0.1 µM, less than 1 µM and less than 0.1 µM.
Take `CC(C)(C#N)c1ccc(Nc2ncnc3ccc(-c4ccc5oc(N)nc5c4)cc23)cc1`: the concentration for half-maximal inhibition (IC50) is less than 0.1 µM in experiment [1], less than 1 µM in experiment [2], less than 1 µM in experiment [3] and less than 0.1 µM in experiment [4].
Turning to `C[C@@H]1COCCN1c1cnc2ccc(-c3ccc4oc(N)nc4c3)nc2n1`, the half-maximal inhibitory concentration (IC50) in experiment [1] was less than 0.1 µM; in experiment [2], less than 10 µM; in experiment [3], less than 10 µM; in experiment [4], less than 0.1 µM.
Regarding `C[C@H]1CN(c2cnc3ccc(-c4ccc5oc(N)nc5c4)nc3n2)CCN1`, the 50% inhibitory concentration (IC50) was less than 10 µM in experiment [1], less than 10 µM in experiment [2], less than 0.1 µM in experiment [3] and less than 1 µM in experiment [4].
As for `CN(C)C1CCN(c2cnc3ccc(-c4ccc5oc(N)nc5c4)cc3n2)CC1`, the IC50 in experiment [1] is less than 1 µM; in experiment [2] it was less than 0.1 µM; in experiment [3], less than 0.1 µM; in experiment [4], less than 0.1 µM.
For `CN1CCN(c2ccnc3ccc(-c4ccc5oc(N)nc5c4)cc23)CC1` [Compound 21], the IC50 in experiment [1] is less than 10 µM; in experiment [2], less than 10 µM; in experiment [3] it was less than 10 µM; in experiment [4] it was less than 1 µM.
Turning to `C[C@H](N)C(=O)N1CCN(c2cnc3ccc(-c4ccc5oc(N)nc5c4)nc3n2)CC1`, the half-maximal inhibitory concentration (IC50) in experiment [1], in experiment [2], in experiment [3] and in experiment [4] was less than 0.1 µM throughout.
On to `C[C@@H]1COCCN1C1CN(c2cnc3ccc(-c4ccc5oc(N)nc5c4)nc3n2)C1`, for which the IC50 in experiment [1] is less than 10 µM; in experiment [2] it was more than 10 µM; in experiment [3] it was more than 10 µM; in experiment [4] it was less than 10 µM.
For `Nc1nc2cc(-c3ccc4ncc(C(=O)N5CCCC5)n4c3)ccc2o1`, the IC50 in experiment [1] is less than 0.1 µM; in experiment [2], less than 1 µM; in experiment [3], less than 10 µM; in experiment [4] it was less than 0.1 µM.
`Nc1noc2ccc(-c3ccc4nccc(-c5ccncc5)c4c3)cc12` [Compound 18]: the IC50 is less than 10 µM in experiment [1], more than 10 µM in experiment [2], more than 10 µM in experiment [3] and less than 10 µM in experiment [4].
For `Nc1nc2cc(-c3ccc4ncc(C(=O)N5CCN(CC6CC6)CC5)n4c3)ccc2o1`, the half-maximal inhibitory concentration (IC50) in experiment [1] was less than 10 µM; in experiment [2], less than 10 µM; in experiment [3], less than 10 µM; in experiment [4] it was less than 1 µM.
Take `Nc1nc2ccc(-c3ccc4ncc(C(=O)N5CCOCC5)n4c3)cc2o1`: the IC50 was less than 1 µM in experiment [1], more than 10 µM in experiment [2], less than 1 µM in experiment [3] and less than 1 µM in experiment [4].
For the molecule `Nc1nc2cc(-c3ccc4ncc(N5CC6CCC(C5)O6)cc4n3)ccc2o1`, the concentration for half-maximal inhibition (IC50) was less than 0.1 µM in experiment [1], more than 10 µM in experiment [2], more than 10 µM in experiment [3] and less than 0.1 µM in experiment [4].
As for `Nc1nc2cc(-c3ccc4ncc(N5CCOCC5)n4n3)ccc2o1`, the IC50 in experiment [1] was less than 10 µM; in experiment [2] it was more than 10 µM; in experiment [3], less than 1 µM; in experiment [4] it was less than 1 µM.
With `Nc1nc2cc(-c3ccc4ncc(C(=O)NCCO)n4c3)ccc2o1`, the IC50 is less than 0.1 µM in experiment [1], less than 1 µM in experiment [2], less than 1 µM in experiment [3] and less than 0.1 µM in experiment [4].
With `Nc1nc2cc(-c3ccc4ncc(C(=O)Nc5cccnc5)n4c3)ccc2o1`, the IC50 is less than 0.1 µM in experiment [1], less than 1 µM in experiment [2], more than 10 µM in experiment [3] and less than 0.1 µM in experiment [4].
With `C[C@H]1COCCN1c1cnc2ccc(-c3ccc4oc(N)nc4c3)nc2n1`, the IC50 is less than 0.1 µM in experiment [1], more than 10 µM in experiment [2], less than 10 µM in experiment [3] and less than 0.1 µM in experiment [4].
In the case of `Nc1nc2cc(-c3ccc4ncc(-c5cnn(CCO)c5)nc4c3)ccc2o1`, the IC50 in experiment [1] is less than 0.1 µM; in experiment [2], more than 10 µM; in experiment [3] it was less than 10 µM; in experiment [4] it was less than 0.1 µM.
